Key:
[1] = biological target: PIKFYVE (Homo sapiens, UniProt Q9Y2I7); test: KINOMEscan: PIKFYVE; assay type: binding
Description: The structure and synthesis of VIP152 were recently described by Lücking et al.. (Fig. 1A); however, the selectivity of the molecule in cellular systems has yet to be explored. […] We also performed this experiment at 1000 nM, where CDK9 was inhibited at 99%. […] We found a strong concordance between our data and those of Lücking when comparing the most inhibited kinases. Potential off-target effects of VIP152 were next tested in vitro at a concentration of 10 µM for off-target activity against a broad range of receptors, transporters, ion channels, and enzymes (n = 138) using the Eurofins Diversity Panel.
Kinomescan Kinase Profiling Assay
Kinomescan Assay was performed at DiscoverRX and described in Fabian, et al. 2005, Nat.
Biotechnol. In brief, kinases were produced and subsequently tagged with DNA for qPCR detection.
Streptavidin-coated magnetic beads were bound to biotinylated kinase ligands to serve as a solid support.
VIP152 was dissolved in DMSO and tested across a 10 serial threefold dilution set and compared to a test compound and a DMSO control. Kinases which were inhibited by VIP152 would not be bound to the solid-support resulting in decreased substrate for the qPCR reaction. Kinome map was produced via TreeSpot Analysis from DiscoverRX. […]
NanoBRETTM Target Engagement Assay Protocol […]
The cell and lipid:DNA […]
complex was dispensed into a sterile tissue culture dish and incubated for 22-24 hours. Test compounds were then delivered from the compound source plate to the wells of a 384-well white NBS plate by Echo 550. Cells with NanoBRET Tracer Reagent were then prepared by first removing media from dish of transfected HEK293 cells via aspiration, trypsinization, and allowing cells to dissociate from the dish. Trypsin was neutralized using medium containing serum and centrifuged at 200g for 5 minutes to pellet the cells. Cell density was then adjusted to 2E05 cells/mL in Opti-MEM without phenol red. Complete 20X NanoBRET Tracer Reagent was prepared with Tracer Dilution Buffer and dispensed at a ratio of 1:20 Reagent to cells in the tube. The cell

[2] = biological target: CDK9 in complex with Cyclin T1 (Homo sapiens, UniProt P50750); test: NanoBRET target engagement assay (HEK293); assay type: cell-based
[3] = biological target: Adrenergic β2 (Homo sapiens, UniProt P07550); test: Eurofins Diversity Panel; assay type: binding; conditions: hum, Conc. 10 μM
[4] = biological target: Dopamine D3 (Homo sapiens, UniProt P35462); test: Eurofins Diversity Panel; assay type: binding; conditions: hum, Conc. 10 μM
[5] = biological target: Endothelin ETA (Homo sapiens, UniProt P25101); test: Eurofins Diversity Panel; assay type: binding; conditions: hum, Conc. 10 μM
[6] = biological target: Melatonin MT1 (Homo sapiens, UniProt P48039); test: Eurofins Diversity Panel; assay type: binding; conditions: hum, Conc. 10 μM
[7] = biological target: Transporter, Dopamine (DAT) (Homo sapiens, UniProt Q01959); test: Eurofins Diversity Panel; assay type: binding; conditions: hum, Conc. 10 μM
[8] = biological target: PFCDPK1(P.falciparum) (Plasmodium falciparum, UniProt P62344); test: DiscoverX KINOMEscan kinase profiling; assay type: binding; conditions: kinase PFCDPK1(P.falciparum) (Entrez CDPK1); compound concentration 1000 nM; read-out: Percent Control
[9] = biological target: RIPK5 (Homo sapiens, UniProt Q6XUX3); test: KINOMEscan: RIPK5; assay type: binding; conditions: 100 nM, read-out: Percent Control
[10] = biological target: RPS6KA5(Kin.Dom.2-C-terminal) (Homo sapiens, UniProt O75582); test: KINOMEscan: RPS6KA5(Kin.Dom.2-C-terminal); assay type: binding; conditions: 100 nM, read-out: Percent Control
[11] = biological target: TGFBR1 (Homo sapiens, UniProt P36897); test: KINOMEscan: TGFBR1; assay type: binding; conditions: 100 nM, read-out: Percent Control
[12] = biological target: ZAK (Homo sapiens, UniProt Q9NYL2); test: KINOMEscan: ZAK; assay type: binding; conditions: 100 nM, read-out: Percent Control
[13] = biological target: ZAP70 (Homo sapiens, UniProt P43403); test: KINOMEscan: ZAP70; assay type: binding; conditions: 100 nM, read-out: Percent Control
[14] = biological target: ALK(L1196M) (Homo sapiens, UniProt Q9UM73, L1196M); test: KINOMEscan: ALK(L1196M); assay type: binding; conditions: 1000 nM, read-out: Percent Control
[15] = biological target: BRAF (Homo sapiens, UniProt P15056); test: KINOMEscan: BRAF; assay type: binding; conditions: 1000 nM, read-out: Percent Control
[16] = biological target: BRAF(V600E) (Homo sapiens, UniProt P15056, V600E); test: KINOMEscan: BRAF(V600E); assay type: binding; conditions: 1000 nM, read-out: Percent Control
[17] = biological target: BRSK2 (Homo sapiens, UniProt Q8IWQ3); test: KINOMEscan: BRSK2; assay type: binding; conditions: 1000 nM, read-out: Percent Control
[18] = biological target: CDK5 (Homo sapiens, UniProt Q00535); test: KINOMEscan: CDK5; assay type: binding; conditions: 1000 nM, read-out: Percent Control
[19] = biological target: CDKL1 (Homo sapiens, UniProt Q00532); test: KINOMEscan: CDKL1; assay type: binding; conditions: 1000 nM, read-out: Percent Control
[20] = biological target: CSNK1D (Homo sapiens, UniProt P48730); test: KINOMEscan: CSNK1D; assay type: binding; conditions: 1000 nM, read-out: Percent Control
[21] = biological target: DLK (Homo sapiens, UniProt Q12852); test: KINOMEscan: DLK; assay type: binding; conditions: 1000 nM, read-out: Percent Control
[22] = biological target: DYRK1A (Homo sapiens, UniProt Q13627); test: KINOMEscan: DYRK1A; assay type: binding; conditions: 1000 nM, read-out: Percent Control
[23] = biological target: EGFR(S752-I759del) (Homo sapiens, UniProt P00533, DEL752-759); test: KINOMEscan: EGFR(S752-I759del); assay type: binding; conditions: 1000 nM, read-out: Percent Control
[24] = biological target: EPHB2 (Homo sapiens, UniProt P29323); test: KINOMEscan: EPHB2; assay type: binding; conditions: 1000 nM, read-out: Percent Control
[25] = biological target: FLT3 (Homo sapiens, UniProt P36888); test: KINOMEscan: FLT3; assay type: binding; conditions: 1000 nM, read-out: Percent Control
[26] = system: FLT3(ITD,F691L); test: KINOMEscan: FLT3(ITD,F691L); assay type: binding, human; conditions: 1000 nM
[27] = biological target: GAK (Homo sapiens, UniProt O14976); test: KINOMEscan: GAK; assay type: binding; conditions: 1000 nM, read-out: Percent Control
[28] = biological target: MEK3 (Homo sapiens, UniProt P46734); test: KINOMEscan: MEK3; assay type: binding; conditions: 1000 nM, read-out: Percent Control
[29] = biological target: MST1R (Homo sapiens, UniProt Q04912); test: KINOMEscan: MST1R; assay type: binding; conditions: 1000 nM, read-out: Percent Control

Chain of PIKFYVE (Q9Y2I7 whole entry): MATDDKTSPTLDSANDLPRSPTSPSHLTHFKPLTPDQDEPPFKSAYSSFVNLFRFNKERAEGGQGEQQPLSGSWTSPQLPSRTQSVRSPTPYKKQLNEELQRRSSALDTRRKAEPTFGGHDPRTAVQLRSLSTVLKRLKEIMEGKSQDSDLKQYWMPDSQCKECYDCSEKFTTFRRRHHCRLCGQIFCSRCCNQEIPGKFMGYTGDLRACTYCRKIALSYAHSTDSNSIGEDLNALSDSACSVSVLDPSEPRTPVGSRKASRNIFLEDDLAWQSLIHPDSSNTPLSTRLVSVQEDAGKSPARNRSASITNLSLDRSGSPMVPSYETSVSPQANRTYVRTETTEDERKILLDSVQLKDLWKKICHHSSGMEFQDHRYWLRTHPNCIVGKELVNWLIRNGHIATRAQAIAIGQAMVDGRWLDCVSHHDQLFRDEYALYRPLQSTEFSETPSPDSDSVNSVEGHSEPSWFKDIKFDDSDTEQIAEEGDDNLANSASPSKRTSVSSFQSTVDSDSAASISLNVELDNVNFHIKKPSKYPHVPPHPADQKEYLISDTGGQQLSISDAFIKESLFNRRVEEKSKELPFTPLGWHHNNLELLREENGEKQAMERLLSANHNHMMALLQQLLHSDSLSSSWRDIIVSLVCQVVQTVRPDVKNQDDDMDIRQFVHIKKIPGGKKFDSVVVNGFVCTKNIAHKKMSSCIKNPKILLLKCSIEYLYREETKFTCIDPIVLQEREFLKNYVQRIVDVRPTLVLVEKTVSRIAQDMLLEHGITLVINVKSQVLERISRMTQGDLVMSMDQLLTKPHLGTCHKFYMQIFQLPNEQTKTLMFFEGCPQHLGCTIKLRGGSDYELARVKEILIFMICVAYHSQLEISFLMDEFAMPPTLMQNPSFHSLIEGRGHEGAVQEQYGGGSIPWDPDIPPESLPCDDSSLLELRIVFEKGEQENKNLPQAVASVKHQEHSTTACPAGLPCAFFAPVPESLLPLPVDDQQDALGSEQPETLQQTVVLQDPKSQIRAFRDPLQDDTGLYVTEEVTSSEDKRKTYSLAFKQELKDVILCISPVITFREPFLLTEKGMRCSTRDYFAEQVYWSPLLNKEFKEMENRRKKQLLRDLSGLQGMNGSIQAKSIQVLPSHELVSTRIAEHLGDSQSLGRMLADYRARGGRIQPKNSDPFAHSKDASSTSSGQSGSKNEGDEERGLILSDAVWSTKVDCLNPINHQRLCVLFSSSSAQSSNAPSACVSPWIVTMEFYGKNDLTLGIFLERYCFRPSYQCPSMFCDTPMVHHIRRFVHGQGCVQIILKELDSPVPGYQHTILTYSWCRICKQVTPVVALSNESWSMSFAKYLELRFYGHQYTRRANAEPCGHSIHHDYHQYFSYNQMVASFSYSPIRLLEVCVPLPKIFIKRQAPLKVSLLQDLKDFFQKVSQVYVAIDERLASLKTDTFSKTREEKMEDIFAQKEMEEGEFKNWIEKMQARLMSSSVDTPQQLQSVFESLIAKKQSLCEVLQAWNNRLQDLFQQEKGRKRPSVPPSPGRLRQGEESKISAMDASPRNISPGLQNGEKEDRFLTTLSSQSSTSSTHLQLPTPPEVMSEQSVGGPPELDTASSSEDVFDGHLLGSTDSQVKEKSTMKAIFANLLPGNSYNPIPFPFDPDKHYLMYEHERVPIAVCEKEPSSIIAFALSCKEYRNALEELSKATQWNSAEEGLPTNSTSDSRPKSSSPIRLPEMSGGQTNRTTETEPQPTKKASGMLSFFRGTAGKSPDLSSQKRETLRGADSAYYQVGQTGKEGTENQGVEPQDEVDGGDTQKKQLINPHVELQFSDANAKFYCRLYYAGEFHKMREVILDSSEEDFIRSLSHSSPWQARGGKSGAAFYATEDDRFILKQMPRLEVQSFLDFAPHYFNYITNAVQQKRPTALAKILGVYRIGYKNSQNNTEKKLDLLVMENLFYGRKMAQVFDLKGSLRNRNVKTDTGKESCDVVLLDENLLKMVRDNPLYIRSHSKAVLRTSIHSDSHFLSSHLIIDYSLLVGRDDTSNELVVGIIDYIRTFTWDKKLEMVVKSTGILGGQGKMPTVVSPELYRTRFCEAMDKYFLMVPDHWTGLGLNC
Chain of CDK9 in complex with Cyclin T1 (P50750 whole entry): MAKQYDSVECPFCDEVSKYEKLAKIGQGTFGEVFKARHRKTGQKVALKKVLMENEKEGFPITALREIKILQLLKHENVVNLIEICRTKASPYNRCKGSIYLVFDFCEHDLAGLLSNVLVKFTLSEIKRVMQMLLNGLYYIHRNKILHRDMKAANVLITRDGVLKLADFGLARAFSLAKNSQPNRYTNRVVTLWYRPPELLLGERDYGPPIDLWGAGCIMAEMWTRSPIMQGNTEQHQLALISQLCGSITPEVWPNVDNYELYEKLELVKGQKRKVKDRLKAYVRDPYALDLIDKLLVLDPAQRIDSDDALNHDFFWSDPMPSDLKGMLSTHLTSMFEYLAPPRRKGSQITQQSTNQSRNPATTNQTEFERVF
Chain of CDK9 in complex with Cyclin T1 (O60563 whole entry partner): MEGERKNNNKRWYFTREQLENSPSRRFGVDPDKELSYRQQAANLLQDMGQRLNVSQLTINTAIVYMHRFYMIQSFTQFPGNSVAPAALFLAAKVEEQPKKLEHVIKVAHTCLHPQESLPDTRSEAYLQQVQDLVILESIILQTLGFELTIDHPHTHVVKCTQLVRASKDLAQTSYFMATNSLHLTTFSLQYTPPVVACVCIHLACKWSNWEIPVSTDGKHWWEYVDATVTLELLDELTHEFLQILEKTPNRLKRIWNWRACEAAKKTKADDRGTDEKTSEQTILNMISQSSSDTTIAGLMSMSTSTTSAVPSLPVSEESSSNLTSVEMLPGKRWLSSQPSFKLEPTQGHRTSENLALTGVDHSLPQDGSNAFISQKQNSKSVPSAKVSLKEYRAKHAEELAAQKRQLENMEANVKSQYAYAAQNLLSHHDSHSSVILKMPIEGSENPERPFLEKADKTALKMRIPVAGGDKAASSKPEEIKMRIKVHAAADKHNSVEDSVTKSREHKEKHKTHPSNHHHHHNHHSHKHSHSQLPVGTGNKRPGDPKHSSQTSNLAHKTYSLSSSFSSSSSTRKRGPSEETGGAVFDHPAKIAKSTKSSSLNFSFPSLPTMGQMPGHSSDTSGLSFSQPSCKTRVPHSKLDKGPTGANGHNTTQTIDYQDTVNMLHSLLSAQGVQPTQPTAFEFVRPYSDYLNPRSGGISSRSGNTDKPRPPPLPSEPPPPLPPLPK
Chain of FLT3 (P36888 27-993): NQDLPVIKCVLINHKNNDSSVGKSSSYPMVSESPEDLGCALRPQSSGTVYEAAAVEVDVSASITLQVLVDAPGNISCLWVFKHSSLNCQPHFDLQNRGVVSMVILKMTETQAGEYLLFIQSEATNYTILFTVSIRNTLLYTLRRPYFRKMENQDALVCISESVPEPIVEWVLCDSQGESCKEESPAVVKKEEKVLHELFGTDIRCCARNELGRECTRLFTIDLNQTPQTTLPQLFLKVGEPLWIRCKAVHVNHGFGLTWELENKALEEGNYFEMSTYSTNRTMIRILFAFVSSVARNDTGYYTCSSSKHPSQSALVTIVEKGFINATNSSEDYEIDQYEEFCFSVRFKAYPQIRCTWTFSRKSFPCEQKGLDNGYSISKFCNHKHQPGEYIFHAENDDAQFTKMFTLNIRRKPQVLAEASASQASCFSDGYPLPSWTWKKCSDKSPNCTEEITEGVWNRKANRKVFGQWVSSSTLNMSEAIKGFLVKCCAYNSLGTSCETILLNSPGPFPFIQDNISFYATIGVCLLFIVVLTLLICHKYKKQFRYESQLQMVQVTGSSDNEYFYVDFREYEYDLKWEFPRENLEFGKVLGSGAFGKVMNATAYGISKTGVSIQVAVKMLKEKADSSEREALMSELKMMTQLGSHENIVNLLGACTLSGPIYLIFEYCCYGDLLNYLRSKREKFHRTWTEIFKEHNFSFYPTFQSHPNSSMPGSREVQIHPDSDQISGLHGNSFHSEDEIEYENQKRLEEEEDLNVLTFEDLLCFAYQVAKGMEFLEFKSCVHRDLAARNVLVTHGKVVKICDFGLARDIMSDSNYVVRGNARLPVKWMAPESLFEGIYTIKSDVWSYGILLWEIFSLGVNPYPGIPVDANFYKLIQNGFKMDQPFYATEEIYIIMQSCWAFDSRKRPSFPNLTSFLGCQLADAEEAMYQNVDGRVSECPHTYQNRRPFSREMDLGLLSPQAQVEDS
Chain of ZAP70 (P43403 whole entry): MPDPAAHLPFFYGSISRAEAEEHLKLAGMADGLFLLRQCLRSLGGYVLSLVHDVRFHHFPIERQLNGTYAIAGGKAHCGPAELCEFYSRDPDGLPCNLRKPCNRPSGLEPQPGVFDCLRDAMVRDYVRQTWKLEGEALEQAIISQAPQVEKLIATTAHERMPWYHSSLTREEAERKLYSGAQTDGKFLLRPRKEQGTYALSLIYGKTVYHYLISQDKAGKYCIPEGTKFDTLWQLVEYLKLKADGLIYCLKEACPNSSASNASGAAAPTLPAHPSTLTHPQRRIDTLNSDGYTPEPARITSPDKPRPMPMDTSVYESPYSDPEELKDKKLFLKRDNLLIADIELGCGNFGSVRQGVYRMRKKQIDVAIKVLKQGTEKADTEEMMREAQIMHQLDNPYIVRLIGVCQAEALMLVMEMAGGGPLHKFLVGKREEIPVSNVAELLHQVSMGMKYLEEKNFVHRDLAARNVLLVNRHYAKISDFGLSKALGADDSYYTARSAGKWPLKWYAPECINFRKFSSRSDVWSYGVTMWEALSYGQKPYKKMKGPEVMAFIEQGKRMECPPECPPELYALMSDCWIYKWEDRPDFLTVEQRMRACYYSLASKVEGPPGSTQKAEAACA
Chain of CDK5 (Q00535 whole entry): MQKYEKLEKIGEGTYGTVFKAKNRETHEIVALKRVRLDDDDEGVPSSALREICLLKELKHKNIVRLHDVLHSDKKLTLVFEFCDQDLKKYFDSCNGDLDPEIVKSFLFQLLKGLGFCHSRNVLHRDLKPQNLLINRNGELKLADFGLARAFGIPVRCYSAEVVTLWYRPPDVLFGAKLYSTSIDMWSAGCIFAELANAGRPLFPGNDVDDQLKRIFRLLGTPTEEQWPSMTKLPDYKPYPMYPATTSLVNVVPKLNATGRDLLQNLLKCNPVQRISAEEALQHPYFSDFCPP

For `COc1cc(F)ccc1-c1cc(Nc2cc(CS(C)(=N)=O)ccn2)ncc1F` (stereo not shown) [VIP152], the inhibition at 0.1 µM ([1]; 100 nM, read-out: inhibition of PIKFYVE relative to control) was 74%, the remaining binding at 0.1 µM ([1]; PIKFYVE, 100 nM, read-out: Percent Control) was 26% and the remaining binding at 1 µM ([1]; kinase PIKFYVE (Entrez PIKFYVE), compound concentration 1000 nM, read-out: Percent Control) was 55%. The “potency versus the other inhibitors” value [2] was “higher potency”, the inhibition at 10 µM [3] was 3% and the inhibition at 10 µM [4] was 7%. The inhibition at 10 µM [5] was 13%, the inhibition at 10 µM [6] was 6% and the inhibition at 10 µM [7] was 31%. For the same compound, the remaining binding at 1 µM [8] was 86%, the remaining binding at 0.1 µM [9] was 83% and the remaining binding at 0.1 µM [10] was 100%. It also gave a remaining binding at 0.1 µM [11] of 100%, a remaining binding at 0.1 µM [12] of 100% and a remaining binding at 0.1 µM [13] of 99%. For the same compound, the remaining binding at 1 µM [14] was 91%, the remaining binding at 1 µM [15] was 55% and the remaining binding at 1 µM [16] was 92%. The remaining binding at 1 µM [17] was 100%, the remaining binding at 1 µM [18] was 83% and the remaining binding at 1 µM [19] was 63%. It also gave a remaining binding at 1 µM [20] of 94%, a remaining binding at 1 µM [21] of 90% and a remaining binding at 1 µM [22] of 12%. It also gave a remaining binding at 1 µM [23] of 97%, a remaining binding at 1 µM [24] of 92% and a remaining binding at 1 µM [25] of 38%. For the same compound, the “Percent Control” value [26] was 78%, the remaining binding at 1 µM [27] was 82% and the remaining binding at 1 µM [28] was 84%. The remaining binding at 1 µM [29] was 70%.

— publication PMC9898036, “VIP152 is a selective CDK9 inhibitor with pre-clinical in vitro and in vivo efficacy in chronic lymphocytic leukemia” (Leukemia, 2022)
